Source: PubChem BioAssay (NCI)
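Cultured in 96-well plates, cells were exposed to test compound for 48 hours across five concentrations. At the TGI there is no net growth.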

Columns and labels:
Test in all cases: DTP human tumour cell line panel, 48 h
786-0 renal = tested on: 786-0 renal
A549 NSCLC = tested on: A549 NSCLC
ACHN renal = tested on: ACHN renal
BT-549 breast = tested on: BT-549 breast
CAKI-1 renal = tested on: CAKI-1 renal
COLO 205 colon = tested on: COLO 205 colon
DU-145 prostate = tested on: DU-145 prostate
EKVX NSCLC = tested on: EKVX NSCLC
HCT-116 colon = tested on: HCT-116 colon
HCT-15 colon = tested on: HCT-15 colon
HL-60(TB) leukemia = tested on: HL-60(TB) leukemia
HOP-62 NSCLC = tested on: HOP-62 NSCLC
HOP-92 NSCLC = tested on: HOP-92 NSCLC
HS 578T breast = tested on: HS 578T breast
HT29 colon = tested on: HT29 colon
IGROV1 ovarian = tested on: IGROV1 ovarian
K-562 leukemia = tested on: K-562 leukemia
KM12 colon = tested on: KM12 colon
LOX IMVI melanoma = tested on: LOX IMVI melanoma
M14 melanoma = tested on: M14 melanoma
MALME-3M melanoma = tested on: MALME-3M melanoma
MCF7 breast = tested on: MCF7 breast
MDA-MB-231 breast = tested on: MDA-MB-231 breast
MDA-MB-435 = tested on: MDA-MB-435
MOLT-4 leukemia = tested on: MOLT-4 leukemia
NCI-H23 lung = tested on: NCI-H23 lung
NCI-H460 lung = tested on: NCI-H460 lung
NCI-H522 lung = tested on: NCI-H522 lung
NCI/ADR-RES ovarian = tested on: NCI/ADR-RES ovarian
OVCAR-3 ovarian = tested on: OVCAR-3 ovarian
OVCAR-4 ovarian = tested on: OVCAR-4 ovarian
OVCAR-5 ovarian = tested on: OVCAR-5 ovarian
OVCAR-8 ovarian = tested on: OVCAR-8 ovarian
PC-3 prostate = tested on: PC-3 prostate
RXF 393 renal = tested on: RXF 393 renal
SF-268 CNS = tested on: SF-268 CNS
SF-295 CNS = tested on: SF-295 CNS
SF-539 CNS = tested on: SF-539 CNS
SK-MEL-2 melanoma = tested on: SK-MEL-2 melanoma
SK-MEL-28 melanoma = tested on: SK-MEL-28 melanoma
SK-MEL-5 melanoma = tested on: SK-MEL-5 melanoma
SK-OV-3 ovarian = tested on: SK-OV-3 ovarian
SN12C renal = tested on: SN12C renal
SNB-19 CNS = tested on: SNB-19 CNS
SNB-75 CNS = tested on: SNB-75 CNS
SR leukemia = tested on: SR leukemia
SW-620 colon = tested on: SW-620 colon
T-47D breast = tested on: T-47D breast
TK-10 renal = tested on: TK-10 renal
U251 CNS = tested on: U251 CNS
UACC-257 melanoma = tested on: UACC-257 melanoma
UACC-62 melanoma = tested on: UACC-62 melanoma
UO-31 renal = tested on: UO-31 renal
A498 renal = tested on: A498 renal
NCI-H226 lung = tested on: NCI-H226 lung
RPMI-8226 leukemia = tested on: RPMI-8226 leukemia

## O=C(CSc1nccc(=O)[nH]1)c1ccccc1
786-0 renal
  TGI: > 100 µM
A549 NSCLC
  TGI: > 100 µM
ACHN renal
  TGI: > 100 µM
BT-549 breast
  TGI: > 100 µM
CAKI-1 renal
  TGI: > 100 µM
COLO 205 colon
  TGI: > 100 µM
DU-145 prostate
  TGI: > 100 µM
EKVX NSCLC
  TGI: > 100 µM
HCT-116 colon
  TGI: > 100 µM
HCT-15 colon
  TGI: > 100 µM
HL-60(TB) leukemia
  TGI: > 100 µM
HOP-62 NSCLC
  TGI: > 100 µM
HOP-92 NSCLC
  TGI: > 100 µM
HS 578T breast
  TGI: > 100 µM
HT29 colon
  TGI: > 100 µM
IGROV1 ovarian
  TGI: > 100 µM
K-562 leukemia
  TGI: > 100 µM
KM12 colon
  TGI: > 100 µM
LOX IMVI melanoma
  TGI: > 100 µM
M14 melanoma
  TGI: > 100 µM
MALME-3M melanoma
  TGI: > 100 µM
MCF7 breast
  TGI: > 100 µM
MDA-MB-231 breast
  TGI: > 100 µM
MDA-MB-435
  TGI: > 100 µM
MOLT-4 leukemia
  TGI: > 100 µM
NCI-H23 lung
  TGI: > 100 µM
NCI-H460 lung
  TGI: > 100 µM
NCI-H522 lung
  TGI: > 100 µM
NCI/ADR-RES ovarian
  TGI: > 100 µM
OVCAR-3 ovarian
  TGI: > 100 µM
OVCAR-4 ovarian
  TGI: > 100 µM
OVCAR-5 ovarian
  TGI: > 100 µM
OVCAR-8 ovarian
  TGI: > 100 µM
PC-3 prostate
  TGI: > 100 µM
RXF 393 renal
  TGI: > 100 µM
SF-268 CNS
  TGI: > 100 µM
SF-295 CNS
  TGI: > 100 µM
SF-539 CNS
  TGI: > 100 µM
SK-MEL-2 melanoma
  TGI: > 100 µM
SK-MEL-28 melanoma
  TGI: > 100 µM
SK-MEL-5 melanoma
  TGI: > 100 µM
SK-OV-3 ovarian
  TGI: > 100 µM
SN12C renal
  TGI: > 100 µM
SNB-19 CNS
  TGI: > 100 µM
SNB-75 CNS
  TGI: > 100 µM
SR leukemia
  TGI: > 100 µM
SW-620 colon
  TGI: > 100 µM
T-47D breast
  TGI: > 100 µM
TK-10 renal
  TGI: > 100 µM
U251 CNS
  TGI: > 100 µM
UACC-257 melanoma
  TGI: > 100 µM
UACC-62 melanoma
  TGI: > 100 µM
UO-31 renal
  TGI: > 100 µM

## CC(C)(OCc1ccccc1)c1ccccc1P(c1ccccc1)c1ccccc1
786-0 renal
  TGI: > 100 µM
A498 renal
  TGI: > 100 µM
A549 NSCLC
  TGI: > 100 µM
ACHN renal
  TGI: > 100 µM
BT-549 breast
  TGI: > 100 µM
CAKI-1 renal
  TGI: > 100 µM
COLO 205 colon
  TGI: > 100 µM
DU-145 prostate
  TGI: > 100 µM
EKVX NSCLC
  TGI: 91.2 µM
HCT-116 colon
  TGI: > 100 µM
HCT-15 colon
  TGI: > 100 µM
HL-60(TB) leukemia
  TGI: 62.9 µM
HOP-62 NSCLC
  TGI: > 100 µM
HOP-92 NSCLC
  TGI: > 100 µM
HS 578T breast
  TGI: > 100 µM
HT29 colon
  TGI: > 100 µM
IGROV1 ovarian
  TGI: > 100 µM
K-562 leukemia
  TGI: > 100 µM
KM12 colon
  TGI: 58 µM
M14 melanoma
  TGI: > 100 µM
MALME-3M melanoma
  TGI: > 100 µM
MCF7 breast
  TGI: > 100 µM
MDA-MB-231 breast
  TGI: > 100 µM
MDA-MB-435
  TGI: > 100 µM
MOLT-4 leukemia
  TGI: 84.5 µM
NCI-H226 lung
  TGI: > 100 µM
NCI-H23 lung
  TGI: 94 µM
NCI-H460 lung
  TGI: > 100 µM
NCI-H522 lung
  TGI: > 100 µM
NCI/ADR-RES ovarian
  TGI: > 100 µM
OVCAR-3 ovarian
  TGI: > 100 µM
OVCAR-4 ovarian
  TGI: > 100 µM
OVCAR-5 ovarian
  TGI: > 100 µM
OVCAR-8 ovarian
  TGI: > 100 µM
PC-3 prostate
  TGI: > 100 µM
RPMI-8226 leukemia
  TGI: 22.8 µM
RXF 393 renal
  TGI: > 100 µM
SF-268 CNS
  TGI: > 100 µM
SF-295 CNS
  TGI: > 100 µM
SF-539 CNS
  TGI: > 100 µM
SK-MEL-2 melanoma
  TGI: > 100 µM
SK-MEL-28 melanoma
  TGI: > 100 µM
SK-MEL-5 melanoma
  TGI: > 100 µM
SK-OV-3 ovarian
  TGI: > 100 µM
SN12C renal
  TGI: > 100 µM
SNB-19 CNS
  TGI: > 100 µM
SNB-75 CNS
  TGI: > 100 µM
SR leukemia
  TGI: > 100 µM
SW-620 colon
  TGI: > 100 µM
T-47D breast
  TGI: > 100 µM
TK-10 renal
  TGI: > 100 µM
U251 CNS
  TGI: > 100 µM
UACC-257 melanoma
  TGI: > 100 µM
UACC-62 melanoma
  TGI: > 100 µM
UO-31 renal
  TGI: > 100 µM
